From patent US20160279187A1, “CALPAIN INHIBITORS FOR IBD AND COLORECTAL CANCER TREATMENT” (UNIVERSITY OF HAWAII, priority 2013, published 2016)
Where a SMILES comes first, the peptide text is derived from it. The star is where a group is joined. Cbz = O=C(OCc1ccccc1)*; CH2F = FC*

Columns and labels:
cathespin L = cathespin L (Homo sapiens, UniProt P07711); conditions: off-target protein; Li et al., Biochemistry 2006; cited from earlier work
[1] = test system: Bone marrow derived macrophages (BMDM); assay: cytokine production by activated bone marrow derived macrophages (CBA); format: cell-based, mouse; conditions: 20 μg/ml; TNFα primed, E. faecalis activated BMDM
Description: Bone marrow derived macrophages (BMDM) were prepared as previously described by methods known to those skilled in the art. On day 5 of culture, 2×10^6 BMDM were seeded in 6-well plates and the following day were primed for 18 h with TNFα (20 ng/mL), followed by 1 h stimulation with E. faecalis (1 μg/mL; ATCC). Stimulation with E. faecalis was conducted in the presence of the zLLY-CH2F calpain-2 inhibitor (20 μg/mL) or DMSO as a control. Media was removed from treated BMDM, centrifuged at 300×g for 5 min and supernatent analyzed using the Cytometric Bead Array Mouse Inflammation Kit (BD Biosciences, San Jose, Calif.). Cytokine data were analyzed using Flowjo software (Ashland, Oreg.) and GraphPad Prism version 4.0 (GraphPad, La Jolla, Calif.). Cell pellets were lysed and analyzed for IκB and NFκB by Western blot as previously described (Miyazaki, T. et al. Journal of Atherosclerosis and Thrombosis 20, 228-237, 2013). In other experiments, mouse CT-26.WT and human HT-29 colon cancer cells were plated in 96-well plates at 10^3 cells/well with 20 μg/mL inhibitor or DMSO, followed by analyses for IκB and NFκB by Western blot as described above for BMDM. For proliferation assays, fresh media with 20 μg/mL inhibitor or DMSO were added every 2 d. Each day 4 wells were quantified using Celltiter MTS reagent (Promega) and the resulting signal was used to generate a proliferation curve. Calpain activity was measured using a Calpain activity assay kit (BioVision, Inc., Milpitas, Calif.) as previously described. Colons were harvested on day 4 and calpain activity measured. Enzyme-linked immunosorbant assay (ELISA) analyses of cecum hemoglobin has been previously described (Miyazaki, T. et al. Journal of Atherosclerosis and Thrombosis 20, 228-237, 2013).
To determine if a similar mechanism may be contributing to the effect of the calpain-2 inhibition in the DSS model of colitis, macrophages were analyzed for NFκB activation and inflammatory cytokine secretion. Bone marrow derived macrophages were primed […] with TNFα (20 ng/ml) and activated with E. faecalis (1 μg/ml) for 1 h in the presence or absence of calpain-2 inhibitor (20 μg/ml). Supernatants were evaluated for a panel of cytokines including IFNγ, TNFα, IL-6, and MCP-1, IL-10, and IL-12. Real-time PCR was performed on total RNA extracted from colon tissues to access levels of cytokines. Media was collected from wells and cytokines assessed by CBA kit (BD Biosciences). For IκB blotting cells were lysed and SDS-PAGE was performed. Membranes were stained with anti-IκB (Cell Signalling) and anti-βactin (Santa Cruz). For NfκB blotting an NFκB Activation Kit (Five Photon) was used to isolate nuclear fractions. These fractions were transferred using SDS-PAGE. The membranes were stained with anti-NFκB (Santa Cruz) or anti-TATA (Abcam). Data are mean±SE (n=3) and represent results from three independent experiments. *p<0.05; one way ANOVA followed by Tukey post-test. […] Importantly, those cytokines most affected by the calpain-2 are regulated by NFκB.

[2] = test system: Akt phosphorylation / FAK cleavage in colon cancer cells; assay: other m-calpain regulated pathways in colon cancer cells (Akt, FAK); format: cell-based
[3] = test system: IκB / NFκB in TNFα primed macrophages; assay: IκB and nuclear NFκB western blot in activated macrophages; format: cell-based, mouse; conditions: vs DMSO
Description: Bone marrow derived macrophages (BMDM) were prepared as previously described by methods known to those skilled in the art. On day 5 of culture, 2×10^6 BMDM were seeded in 6-well plates and the following day were primed for 18 h with TNFα (20 ng/mL), followed by 1 h stimulation with E. faecalis (1 μg/mL; ATCC). Stimulation with E. faecalis was conducted in the presence of the zLLY-CH2F calpain-2 inhibitor (20 μg/mL) or DMSO as a control. Media was removed from treated BMDM, centrifuged at 300×g for 5 min and supernatent analyzed using the Cytometric Bead Array Mouse Inflammation Kit (BD Biosciences, San Jose, Calif.). Cytokine data were analyzed using Flowjo software (Ashland, Oreg.) and GraphPad Prism version 4.0 (GraphPad, La Jolla, Calif.). Cell pellets were lysed and analyzed for IκB and NFκB by Western blot as previously described (Miyazaki, T. et al. Journal of Atherosclerosis and Thrombosis 20, 228-237, 2013). […] Each day 4 wells were quantified using Celltiter MTS reagent (Promega) and the resulting signal was used to generate a proliferation curve. Calpain activity was measured using a Calpain activity assay kit (BioVision, Inc., Milpitas, Calif.) as previously described. Colons were harvested on day 4 and calpain activity measured. […] Supernatants were evaluated for a panel of cytokines including IFNγ, TNFα, IL-6, and MCP-1, IL-10, and IL-12. […]

Chain of cathespin L (P07711 114-333): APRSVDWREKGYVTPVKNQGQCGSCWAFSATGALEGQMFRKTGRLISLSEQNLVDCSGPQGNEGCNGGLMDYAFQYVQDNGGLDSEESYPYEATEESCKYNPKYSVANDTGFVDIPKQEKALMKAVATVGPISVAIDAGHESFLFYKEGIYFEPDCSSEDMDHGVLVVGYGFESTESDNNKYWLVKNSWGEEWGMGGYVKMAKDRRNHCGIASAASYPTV

CC(C)C[C@H](NC(=O)OCc1ccccc1)C(=O)N[C@@H](CC(C)C)C(=O)N[C@@H](Cc1ccc(O)cc1)C(=O)CF [zLLY-CH2F, Z-LLY-CH2F] (Cbz-Leu-Leu-Tyr-CH2F)
rate constant k2, inhibition of cathespin L (cathespin L): 680,000 M^−1s^−1
production of IFNγ [1]: significant decrease
production of IL-6 [1]: significant decrease
production of IL-10 [1]: not significantly affected
production of IL-12 [1]: not significantly affected
production of MCP-1 [1]: significant decrease
production of TNFα [1]: significant decrease
FAK cleavage [2]: not apparent
phosphorylation of Akt [2]: inhibited
IκB degradation [3]: decreased
NFκB localization to the nucleus [3]: decreased
